# Assay results published in US11524966B1 (Valo Early Discovery, Inc., priority 2017, dated 2022).
# Biological target: T1, USP28 (USP28-5(1-1077)-TEV-6*His; LifeSensors) (Homo sapiens, UniProt Q96RU2)
# T1 construct: construct USP28 (USP28-5(1-1077)-TEV-6*His; LifeSensors); TEV cleavage site (C); 6xHis (C); purchased LifeSensors
# T1 sequence (Q96RU2 1-1077): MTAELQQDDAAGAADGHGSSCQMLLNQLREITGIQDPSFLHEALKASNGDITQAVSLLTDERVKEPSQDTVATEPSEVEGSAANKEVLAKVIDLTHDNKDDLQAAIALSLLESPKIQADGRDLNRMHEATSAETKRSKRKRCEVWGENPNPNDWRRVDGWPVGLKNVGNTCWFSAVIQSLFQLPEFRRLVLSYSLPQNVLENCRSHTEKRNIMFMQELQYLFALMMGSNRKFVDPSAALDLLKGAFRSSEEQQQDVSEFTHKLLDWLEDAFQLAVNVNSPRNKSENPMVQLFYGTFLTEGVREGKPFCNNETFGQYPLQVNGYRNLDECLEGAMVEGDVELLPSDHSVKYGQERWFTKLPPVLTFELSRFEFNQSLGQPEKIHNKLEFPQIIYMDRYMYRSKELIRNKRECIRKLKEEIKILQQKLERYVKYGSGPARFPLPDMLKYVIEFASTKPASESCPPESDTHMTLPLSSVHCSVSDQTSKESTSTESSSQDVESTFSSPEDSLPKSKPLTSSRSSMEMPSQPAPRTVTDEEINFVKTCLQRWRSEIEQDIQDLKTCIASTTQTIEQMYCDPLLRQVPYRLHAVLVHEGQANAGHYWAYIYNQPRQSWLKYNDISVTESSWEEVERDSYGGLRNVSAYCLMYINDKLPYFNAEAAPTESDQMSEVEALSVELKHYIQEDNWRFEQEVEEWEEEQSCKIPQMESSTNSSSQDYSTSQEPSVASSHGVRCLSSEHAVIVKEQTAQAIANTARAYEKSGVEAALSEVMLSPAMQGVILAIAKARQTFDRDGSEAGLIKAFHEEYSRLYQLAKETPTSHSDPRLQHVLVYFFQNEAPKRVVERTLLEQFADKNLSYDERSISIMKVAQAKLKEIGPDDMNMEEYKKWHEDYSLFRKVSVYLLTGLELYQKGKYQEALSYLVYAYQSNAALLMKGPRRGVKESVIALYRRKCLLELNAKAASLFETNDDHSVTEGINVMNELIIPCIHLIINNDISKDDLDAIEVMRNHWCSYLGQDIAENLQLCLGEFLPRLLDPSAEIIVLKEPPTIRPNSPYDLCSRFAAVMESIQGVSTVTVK
# Assay: Ubiquitin-Rhodamine 110 Assay for USP28 Activity, Example A-1(b)
# Assay type: biochemical
# Details: Ubiquitin-Rhodamine 110 assay
# Outline: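 Single-point screening used 10 μM compound with 90 min room-temperature incubation; follow-up dose-responses (25 μM top, 3-fold) used 75 pM USP28 1-1077 construct, 30 min compound preincubation, 25 nM Ub-Rh110, 20 min reaction, citric acid quench. Rh110 fluorescence normalised to no-enzyme and DMSO controls; IC50 from 4-parameter logistic fit.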
structure (smiles),measurement,setting,value
"Cc1ccc2c(N)c(C(=O)N[C@@H]3CCc4c(ccc(N5CCNCC5)c4F)C3)sc2n1 (single isomer, unassigned) [Example 21-5]",USP28 A-1(b) IC50 range,format Example A-1(b),++++ (0.001-0.05 μM)
"Cc1ccc2c(N)c(C(=O)N[C@H]3CCc4c(ccc(N5CCNCC5)c4F)C3)sc2n1 (single isomer, unassigned) [Example 21-6]",USP28 A-1(b) IC50 range,format Example A-1(b),++ (0.2-2 μM)
"Cc1ccc2c(N)c(C(=O)N[C@@H]3CCc4cc(N5CCNCC5)c(F)cc4C3)sc2n1 (single isomer, unassigned) [Example 21-7]",USP28 A-1(b) IC50 range,format Example A-1(b),+++ (0.05-0.2 μM)
"Cc1ccc2c(N)c(C(=O)N[C@H]3CCc4cc(N5CCNCC5)c(F)cc4C3)sc2n1 (single isomer, unassigned) [Example 21-8]",USP28 A-1(b) IC50 range,format Example A-1(b),+ (>2 μM)
"Cc1ccc2c(N)c(C(=O)N[C@H]3CCc4c(F)c(N5CCNCC5)cc(F)c4C3)sc2n1 (single isomer, unassigned) [Example 22-1]",USP28 A-1(b) IC50 range,format Example A-1(b),++ (0.2-2 μM)
"Cc1ccc2c(N)c(C(=O)N[C@@H]3CCc4c(F)c(N5CCNCC5)cc(F)c4C3)sc2n1 (single isomer, unassigned) [Example 22-2]",USP28 A-1(b) IC50 range,format Example A-1(b),+++ (0.05-0.2 μM)
"Cc1ccc2c(N)c(C(=O)N[C@H]3COc4cc(C5(F)CCNCC5)ccc4C3)sc2n1 [Example 8-1, (R)-3-Amino-N-(7-(4-fluoropiperidin-4-yl)chroman-3-yl)-6-methylthieno[2,3-b]pyridine-2-carboxamide]",USP28 A-1(b) IC50 range,Example A-1(b),++++ (0.001-0.05 μM)
"Cc1ccc2c(N)c(C(=O)N[C@H]3COc4cc(N5CCNCC5)cc(F)c4C3)sc2n1 [Example 10-1, (R)-3-amino-N-(5-fluoro-7-(piperazin-1-yl)chroman-3-yl)-6-methylthieno[2,3-b]pyridine-2-carboxamide]",USP28 A-1(b) IC50 range,Example A-1(b),+++ (0.05-0.2 μM)
"Cc1ccc2c(N)c(C(=O)N[C@@H]3COc4cc(N5CCNCC5)cc(F)c4C3)sc2n1 [Example 10-5, (S)-3-amino-N-(5-fluoro-7-(piperazin-1-yl)chroman-3-yl)-6-methylthieno[2,3-b]pyridine-2-carboxamide]",USP28 A-1(b) IC50 range,Example A-1(b),+ (>2 μM)
"Cc1ccc2c(N)c(C(=O)N[C@H]3COc4cc(N5CC6CNCC(C5)O6)cc(F)c4C3)sc2n1 [Example 10-6, N-((3R)-7-(9-oxa-3,7-diazabicyclo[3.3.1]nonan-3-yl)-5-fluorochroman-3-yl)-3-amino-6-methylthieno[2,3-b]pyridine-2-carboxamide]",USP28 A-1(b) IC50 range,Example A-1(b),++++ (0.001-0.05 μM)
"Cc1cc(C)c2c(N)c(C(=O)N[C@H]3COc4cc(N5CC6CC(C5)N6)cc(F)c4C3)sc2n1 [Example 10-7, N-((3R)-7-(3,6-diazabicyclo[3.1.1]heptan-3-yl)-5-fluorochroman-3-yl)-3-amino-4,6-dimethylthieno[2,3-b]pyridine-2-carboxamide]",USP28 A-1(b) IC50 range,Example A-1(b),+++ (0.05-0.2 μM)
"Cc1cnc2c(N)c(C(=O)N[C@H]3COc4cc(N5CC6CC(C5)N6)cc(F)c4C3)sc2n1 [Example 10-8, N-((3R)-7-(3,6-diazabicyclo[3.1.1]heptan-3-yl)-5-fluorochroman-3-yl)-7-amino-3-methylthieno[2,3-b]pyrazine-6-carboxamide]",USP28 A-1(b) IC50 range,Example A-1(b),+++ (0.05-0.2 μM)
"Cc1cc(C)c2c(N)c(C(=O)N[C@H]3COc4cc(N5CCNCC5)cc(F)c4C3)sc2n1 [Example 10-9, (R)-3-amino-N-(5-fluoro-7-(piperazin-1-yl)chroman-3-yl)-4,6-dimethylthieno[2,3-b]pyridine-2-carboxamide]",USP28 A-1(b) IC50 range,Example A-1(b),+++ (0.05-0.2 μM)
"Cc1cnc2c(N)c(C(=O)N[C@H]3COc4cc(N5CCNCC5)cc(F)c4C3)sc2n1 [Example 10-10, (R)-7-amino-N-(5-fluoro-7-(piperazin-1-yl)chroman-3-yl)-3-methylthieno[2,3-b]pyrazine-6-carboxamide]",USP28 A-1(b) IC50 range,Example A-1(b),+++ (0.05-0.2 μM)
"COc1ccc2c(N)c(C(=O)N[C@H]3COc4cc(N5CCNCC5)cc(F)c4C3)sc2n1 [Example 10-11, (R)-3-amino-N-(5-fluoro-7-(piperazin-1-yl)chroman-3-yl)-6-methoxythieno[2,3-b]pyridine-2-carboxamide]",USP28 A-1(b) IC50 range,Example A-1(b),++ (0.2-2 μM)
"Cc1cnc2c(N)c(C(=O)N[C@H]3COc4cc(N5CC6CNCC(C5)O6)cc(F)c4C3)sc2n1 [Example 10-12, N-((3R)-7-(9-oxa-3,7-diazabicyclo[3.3.1]nonan-3-yl)-5-fluorochroman-3-yl)-7-amino-3-methylthieno[2,3-b]pyrazine-6-carboxamide]",USP28 A-1(b) IC50 range,Example A-1(b),++++ (0.001-0.05 μM)
"Cc1cc(C)c2c(N)c(C(=O)N[C@H]3COc4cc(N5CC6CNCC(C5)O6)cc(F)c4C3)sc2n1 [Example 10-13, N-((3R)-7-(9-oxa-3,7-diazabicyclo[3.3.1]nonan-3-yl)-5-fluorochroman-3-yl)-3-amino-4,6-dimethylthieno[2,3-b]pyridine-2-carboxamide]",USP28 A-1(b) IC50 range,Example A-1(b),++++ (0.001-0.05 μM)
"Cc1cc(C(F)(F)F)c2c(N)c(C(=O)N[C@H]3COc4cc(N5CCNCC5)cc(F)c4C3)sc2n1 [Example 10-14, (R)-3-amino-N-(5-fluoro-7-(piperazin-1-yl)chroman-3-yl)-6-methyl-4-(trifluoromethyl)thieno[2,3-b]pyridine-2-carboxamide]",USP28 A-1(b) IC50 range,Example A-1(b),++ (0.2-2 μM)
"Cc1ccc2c(N)c(C(=O)N[C@H]3CCc4cc(N5CC6CCC(C5)N6)ccc4C3)sc2n1 [Example 11-1, N-((2S)-6-(3,8-diazabicyclo[3.2.1]octan-3-yl)-1,2,3,4-tetrahydronaphthalen-2-yl)-3-amino-6-methylthieno[2,3-b]pyridine-2-carboxamide]",USP28 A-1(b) IC50 range,Example A-1(b),+++ (0.05-0.2 μM)
"Cc1ccc2c(N)c(C(=O)N[C@@H]3CCc4cc(N5CC6CCC(C5)N6)ccc4C3)sc2n1 [Example 11-2, N-((2R)-6-(3,8-diazabicyclo[3.2.1]octan-3-yl)-1,2,3,4-tetrahydronaphthalen-2-yl)-3-amino-6-methylthieno[2,3-b]pyridine-2-carboxamide]",USP28 A-1(b) IC50 range,Example A-1(b),++ (0.2-2 μM)
"Cc1ccc2c(N)c(C(=O)N[C@H]3COc4cc(N5CC6CCC(C5)N6)c(F)c(F)c4C3)sc2n1 [Example 13-3, N-((3R)-7-(3,8-diazabicyclo[3.2.1]octan-3-yl)-5,6-difluorochroman-3-yl)-3-amino-6-methylthieno[2,3-b]pyridine-2-carboxamide]",USP28 A-1(b) IC50 range,format Example A-1(b),+ (>2 μM)
"Cc1ccc2c(N)c(C(=O)N[C@@H]3COc4cc(N5CC6CCC(C5)N6)c(F)c(F)c4C3)sc2n1 [Example 13-4, N-((3S)-7-(3,8-diazabicyclo[3.2.1]octan-3-yl)-5,6-difluorochroman-3-yl)-3-amino-6-methylthieno[2,3-b]pyridine-2-carboxamide]",USP28 A-1(b) IC50 range,format Example A-1(b),++++ (0.001-0.05 μM)
"Cc1ccc2c(N)c(C(=O)N[C@H]3COc4cc(N5CCNCC5)c(Cl)cc4C3)sc2n1 [Example 13-5, (R)-3-amino-N-(6-chloro-7-(piperazin-1-yl)chroman-3-yl)-6-methylthieno[2,3-b]pyridine-2-carboxamide]",USP28 A-1(b) IC50 range,format Example A-1(b),+ (>2 μM)
"Cc1ccc2c(N)c(C(=O)N[C@@H]3COc4c(ccc(N5CCNCC5)c4Cl)C3)sc2n1 [Example 13-8, (S)-3-amino-N-(8-chloro-7-(piperazin-1-yl)chroman-3-yl)-6-methylthieno[2,3-b]pyridine-2-carboxamide]",USP28 A-1(b) IC50 range,format Example A-1(b),+ (>2 μM)
"Cc1ccc2c(N)c(C(=O)N[C@H]3COc4c(ccc(N5CCNCC5)c4Cl)C3)sc2n1 [Example 13_7, (R)-3-amino-N-(8-chloro-7-(piperazin-1-yl)chroman-3-yl)-6-methylthieno[2,3-b]pyridine-2-carboxamide]",USP28 A-1(b) IC50 range,format Example A-1(b),+++ (0.05-0.2 μM)
"Cc1ccc2c(N)c(C(=O)N[C@H]3COc4cc(N5CCNCC5)ncc4C3)sc2n1 [Example 16, (R)-3-Amino-6-methyl-N-(7-(piperazin-1-yl)-3,4-dihydro-2H-pyrano[3,2-c]pyridin-3-yl)thieno[2,3-b]pyridine-2-carboxamide]",USP28 A-1(b) IC50 range,format Example A-1(b),++ (0.2-2 μM)
